Data: patent US11214561B2, “Histone methyltransferase EZH2 inhibitor, preparation method and pharmaceutical use thereof” (ANCUREALL PHARMACEUTICAL (SHANGHAI) CO., LTD., priority 2017, dated 2022)

Experiments:
SU-DHL-8 (EZH2 WT) = assay: In vitro 50% growth inhibition (GI50), MTT/CCK8, SU-DHL-8 cells; format: cell-based; conditions: Homo sapiens, SU-DHL-8, 144 h; Drug treatment for 6 days
Source text: (§1) In the present invention, a representative tumor cell line was selected to determine the cell growth inhibition activity of the present compound. Cell culture conditions and methods were in accordance with the requirements for each cell lines. The cells were subcultured in vitro for less than 3 generations each time, and as required, monoclone purification and identification of cell lines could be carried out.
(§2) The cell culture media used were RPMI1640 (Gibco) comprising 5-20% of fetal bovine serum (Gibco), 1% of double-antibiotic and 2 mM of glutamine.
(§3) Suspension culture cells were collected by centrifugation (1700 rpm, 3 minutes), and the supernatant was discarded and the cells were counted. According to each cell growth cycle, different concentrations of cells were prepared (1-10×10^4 cells per ml) and added to 96-well plates (Corning) with 100 μl per well, and then incubated overnight at 37° C., 5% CO2. The next day, the test compound was added to the cultured cells (2 wells in parallel). The final concentration of the solvent was less than 1/1,000. The cells were further cultured for 6 to 12 days and assayed by MTT.
(§4) The compound was stored at a concentration of 10 mM at −20° C. and diluted to two-fold or 10-fold series prior to use.
(§5) For the suspension culture cells, CCK8 was directly added to 10% of the final concentration. The cells were continually incubated for […].
(§6) The experiments were repeated 3 times and a statistical analysis of data was conducted.

Pfeiffer (EZH2 A677G) = assay: In vitro 50% growth inhibition (GI50), MTT/CCK8, Pfeiffer cells; format: cell-based, Human; conditions: Homo sapiens, Pfeiffer, 240 h; Drug treatment for 10 days
Source text: as §1, §2, §3, §4, §5, §6

[1] = tested on: EZH2 A677G mutant positive-expressing tumor cell line Pfeiffer; assay: In vivo growth inhibition, Pfeiffer subcutaneous transplantation model; conditions: for Tumor volume: 200 mg/kg orally once a day
Source text: Test Example 2 Determination of the in vivo growth inhibition activity of the present compounds on EZH2 A677G mutant positive-expressing tumor cell line Pfeiffer NOD/SCID mice were subcutaneously inoculated with human diffuse large cell B lymphoma lymphocyte Pfeiffer (ATCC) expressing EZH2 A677G mutant protein to establish a subcutaneous transplantation model of human B cell lymphoma.
Experimental animals: NOD/SCID mice, female, 9 weeks (weeks of age when tumor cell inoculation), average weight 20.3 g, 18 mice, were purchased from Shanghai Lingchang biotechnology co., Ltd. with animal certificate No.: 2002007656. The breeding environment was SPF grade.
Test samples: the present example compounds 34 (purity: 99.03%) and 35 (purity: 97.6%), solid powder, preserved at −20° C.
Pfeiffer cells were cultured in RPM1640 medium containing 10% of fetal bovine serum. Log-phase Pfeiffer cells were collected and resuspended with PBS to 1×10^8 cells per ml for subcutaneous inoculation in NOD/SCID mice.
All the mice were treated with Co60 irradiation at a dose of 200 rad the day before the inoculation, and 1×10^7 Pfeiffer cells were then subcutaneously inoculated at the right back, and the cells were resuspended in 1:1 PBS and Matrigel (0.1 ml/mouse). When the average tumor volume was 134 mm^3, the mice were randomly grouped according to tumor size. Tumor volume was calculated as: long diameter×short diameter^2/2. The day of tumor cells inoculation was defined as day 0. The test was divided into solvent control group and drug treatment group (compound 34 group and compound 35 group). 6 mice for each group were given orally once a day for a total of 4 weeks. Efficacy was assessed based on relative tumor growth inhibition value (TGI), and safety was assessed based on animal weight change and mortality.
Preparation of test samples: compounds 34 or 35 was weighed and mixed with ultrapure water, and methanesulfonic acid was added for clarification. The PH value was about 1.64 at this moment. 4M NaOH was then added to adjust the PH to 3.5 and bring to volume by ultrapure water, the final concentrations was 20 mg/ml. Determination standard: TGI (%): […].
T/C % refers to the relative value-added rate of tumor, that is, the percentage value of relative tumor volume or tumor weight for the treatment group and the control group at a certain point. T and C were the relative tumor volumes (RTV) of the treatment group and the control group at a specific point, respectively. The calculation formula is as follows: T/C%=TRTV/CRTV*100% TRTV: mean RTV of the treatment group; CRTV: mean RTV of solvent control group; RTV=Vt/V0, V0 was the tumor volume of the animal when grouping, Vt was the tumor volume of the animal after treatment. Statistical analysis: all test results were defined as mean tumor volume±SEM (mean standard error). Tumor volume data of 27 days after the start of treatment were selected for statistical analysis among different groups, and independent sample T test was used to compare whether there were significant differences in tumor volume between the treatment group and the control group. All data were analyzed using SPSS 18.0. P<0.05 was considered as significant difference.

Karpas-422 (EZH2 Y641N) = assay: In vitro 50% growth inhibition (GI50), MTT/CCK8, Karpas-422 cells; format: cell-based; conditions: Homo sapiens, KARPAS-422, 144 h; Drug treatment for 6 days
Source text: as §1, §2, §3, §4, §5, §6

[2] = In vivo pharmacokinetics in rats; conditions: SD rats
Method: Test Example 4 Study of In Vivo Pharmacokinetics of the Present Compounds in Rats
Male SD rats (Shanghai Sippr-BK Experimental Animal Co., Ltd) were purchased and kept in Shanghai University of Traditional Chinese Medicine animal center (approved by the ethics committee of Shanghai University of Traditional Chinese Medicine) for 7 days. The rats were randomly divided into 4 groups (˜220 g), 3 rats for each group. Animals were administered intravenously (iv) and orally (po). The rats in po group were starved for 12 hours before administration. After administration, blood was collected from the orbital venous plexus at 0 min (before administration), 2 min, 5 min, 15 min, 30 min, 1 h, 2 h, 4 h, 6 h, 8 h and 24 h. About 200 ul of blood was collected at each time point, and were collected in 1.5 ml centrifuge tube containing heparin sodium. The upper blood […] were collected by centrifugation (8000 rpm, 3 min) and stored at −80° C.
Preparation of test samples: 125.0 mg compound 34 or compound 35 was weighed and added with 4 ml ultrapure water, and 25 ul methanesulfonic acid was added with stirring. The mixture was further stirred until clear and transparent (pH ˜3.32). 1 ml of the above solution was added with 4 ml of ultra-pure water to obtain 5 mg/ml of compound 34 or compound 35 solution (pH=3.5).
Dose and mode of administration: single oral dose (100 mpk) and single intravenous dose (5 mpk).
Administration volume: 4 ml/kg (orally), 1 ml/kg (intravenously).
The plasma concentration of the compound was determined by LC-MS/MS (AB scexqtrap@4500 LCMS/MS system). Pharmacokinetic parameters were calculated by WinNonlin (a professional software). The experiment was repeated once.

[3] = 200 mg/kg, 27th day after the start of treatment
[4] = 200 mg/kg, 27 days after the start of treatment

C=CC(=O)N1CCC(N(CC)c2cc(-c3ccc(CN4CCOCC4)cc3)cc(C(=O)NCc3c(C)cc(C)[nH]c3=O)c2C)CC1 [Example 35, N-(4,6-dimethyl-2-oxo-1,2-dihydro-pyridin-3-ylmethyl)-5-[(1-acryloyl-piperidin-4-yl)-ethyl-amino]-4-methyl-4′-(morpholin-4-ylmethyl)-[1,1′-biphenyl]-3-carboxamide]
GI50 (SU-DHL-8 (EZH2 WT)): > 1000 nM
GI50 (Pfeiffer (EZH2 A677G)): 1 to 10 nM
body weight during the treatment ([1]; 200 mg/kg dose): maintained a stable body weight
tolerability ([1]; 200 mg/kg dose): well tolerated
Tumor volume ([1]; Day 0 after the start of treatment): 134 ± 9 mm^3
Tumor volume ([1]; Day 3 after the start of treatment): 324 ± 38 mm^3
Tumor volume ([1]; Day 7 after the start of treatment): 681 ± 72 mm^3
Tumor volume ([1]; Day 10 after the start of treatment): 635 ± 88 mm^3
Tumor volume ([1]; Day 14 after the start of treatment): 710 ± 87 mm^3
Tumor volume ([1]; Day 17 after the start of treatment): 751 ± 135 mm^3
Tumor volume ([1]; Day 21 after the start of treatment): 801 ± 152 mm^3
Tumor volume ([1]; Day 24 after the start of treatment): 1029 ± 193 mm^3
Tumor volume ([1]; Day 27 after the start of treatment, listed as Compound 35): 1116 ± 196 mm^3
Tumor volume ([1]; Day 27 after the start of treatment, listed as compound 35): 1116 mm^3
RTV (x ± S), relative tumor volume [1, 3]: 8.2 ± 1.1
T/C (%), relative tumor volume [1, 3]: 57.7%
TGI (%), relative tumor volume [1, 3]: 42.3%
T/C (%), tumor weight [1, 4]: 51.3%
TGI, tumor weight [1, 4]: 48.7%
Tumor weight (mg) (x ± S) [1, 4]: 580 ± 99 mg
anti-tumor effect, in words ([1]; 200 mg/kg, versus solvent control group): significant anti-tumor effects
GI50 (Karpas-422 (EZH2 Y641N)): 10 to 100 nM
bioavailability, in words [2]: good bioavailability
bioavailability ([2]; male, rat, plasma, IV 5 mg/kg, PO 100 mg/kg, methanesulfonic acid aqueous solution): 39.1%
